# Target: T1, human CRTH2 (Homo sapiens, UniProt Q9Y5Y4)
# T1 construct: expressed in transfected cells; host or cells: L1.2 cells, pEAK expression vector, puromycin-selected
# T1 sequence (Q9Y5Y4 1-395): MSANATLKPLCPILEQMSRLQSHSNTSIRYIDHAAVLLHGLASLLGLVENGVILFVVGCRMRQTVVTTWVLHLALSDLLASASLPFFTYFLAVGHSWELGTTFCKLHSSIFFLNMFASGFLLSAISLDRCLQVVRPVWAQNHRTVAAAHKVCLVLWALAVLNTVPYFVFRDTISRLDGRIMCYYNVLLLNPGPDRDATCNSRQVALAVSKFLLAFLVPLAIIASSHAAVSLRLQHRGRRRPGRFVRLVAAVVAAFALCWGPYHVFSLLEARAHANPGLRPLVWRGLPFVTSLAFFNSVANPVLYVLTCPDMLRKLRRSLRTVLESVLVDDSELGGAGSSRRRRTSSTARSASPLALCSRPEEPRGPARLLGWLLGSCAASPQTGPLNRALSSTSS
# Test: Measurement of Ca2+ mobilization in the human CRTH2-transfected L1.2 cell line (Assay 1)
# Assay type: cell-based
# Settings: PGD2-induced Ca2+ mobilization in CRTH2-transfected L1.2 cells; compounds as yielded by solid phase synthesis, purity about 40 to 90%; read-out: Activity class
# Procedure: Human CRTH2 cDNA was amplified from human eosinophil cDNA with gene specific primers containing restriction sites for cloning into pEAK vector (Edge Bio Systems). The human CRTH2 cDNA was cloned into the mammalian expression vector pEAK. This expression plasmid (40 μg) was transfected into L1.2 cells, at a cell density of 1×10^7 cells/500 μl, by using electroporation apparatus (Gene Pulser II, BioRad) at 250V/1,000 μF. One day after the transfection, puromycin (1 μg/ml, Sigma) was added into the cell culture plates. Two weeks after the transfection, grown cells were picked up for further growth.
# [Measurement of Ca^2+ Mobilization in the Human CRTH2-Transfected L1.2 Cell Line] (Assay 1)
# Ca^2+ loading buffer was prepared by mixing 5 μl of Fluo-3AM (2 mM in DMSO, final 1 μM, Molecular Probes) and 10 μl of pluronic F-127 (Molecular Probes) and diluting the resulting mixture in 10 ml of Ca^2+ assay buffer (20 mM HEPES pH 7.6, 0.1% BSA, 1 mM probenecid, Hanks' solution). The CRTH2 transfected cells which were prepared in Example 1 were washed with PBS, resuspended in Ca^2+ loading buffer at 1×10^7 cells/ml, and incubated for 60 min at room temperature. After incubation, cells were washed and resuspended in Ca^2+ assay buffer, then dispensed into transparent-bottom 96-well plates (#3631, Costar) at 2×10^5 cells/well. Cells were incubated with various concentrations of test compound for 5 minutes at room temperature. The emitted 480 nm fluorescence was measured on FDSS6000, a Ca^2+-measurement apparatus (Hamamatsu Photonics, Hamamatsu, Japan).
# Assay results in Assay 1 are shown in Examples and tables of the Examples below. The data corresponds to the compounds as yielded by solid phase synthesis and thus to levels of purity of about 40 to 90%. For practical reasons, the compounds are grouped in four classes of activity as follows: IC50=A(< or =)10 nM<B(< or =)100 nM<C(< or =)500 nM<D
row,SMILES,IC50
1,"CN(CC(=O)NC1CCCC1)c1nc(Cc2ccc(NC(=O)Nc3ccccc3)cc2)nc(Cl)c1CC(=O)O [Example 4-1, {2-{4-[(Anilinocarbonyl)amino]benzyl}-4-chloro-6-[[2-(cyclopentylamino)-2-oxoethyl](methyl)amino]pyrimidin-5-yl}acetatic acid]",10 to 100 nM
2,CN(C)c1nc(Cc2ccc(NC(=O)c3ccc(F)cc3)cc2)ncc1CC(=O)O [Example 2-20],10 to 100 nM
3,COc1cccc(C(=O)Nc2ccc(Cc3ncc(CC(=O)O)c(N(C)C)n3)cc2)c1 [Example 2-14],10 to 100 nM
4,CN(CC(=O)NC1CCCC1)c1nc(Cc2ccc(NC(=O)Nc3ccc4ccccc4c3)cc2)nc(Cl)c1CC(=O)O [Example 4-4],10 to 100 nM
5,CC(C)N(C)c1nc(Cc2ccc(NC(=O)c3ccc4ccccc4c3)cc2)nc(Cl)c1CC(=O)O [Example 3-4],< 10 nM
6,"CN(C)c1nc(Cc2ccc(NC(=O)c3ccc4ccccc4c3)cc2)nc(Cl)c1CC#N [Example 12, N-(4-{[4-Chloro-5-(cyanomethyl)-6-(dimethylamino)pyrimidin-2-yl]methyl}phenyl)-2-naphthamide]",100 to 500 nM
7,CN(C)c1nc(Cc2ccc(NC(=O)c3ccc(OC(F)(F)F)cc3)cc2)ncc1CC(=O)O [Example 2-19],< 10 nM
8,O=C(O)Cc1c(Cl)nc(Cc2ccc(NC(=O)c3ccc4ccccc4c3)cc2)nc1N1CCC[C@H]1C(=O)O [Example 3-14],10 to 100 nM
9,CSc1ccc(C(=O)Nc2ccc(Cc3nc(Cl)c(CC(=O)O)c(N4CCCC4)n3)cc2)cc1 [Example 3-15],< 10 nM
10,CCN(CC)c1nc(Cc2ccc(NC(=O)c3ccc4ccccc4c3)cc2)nc(Cl)c1CC(=O)O [Example 3-11],10 to 100 nM
11,CN(CC(=O)NC1CCCC1)c1nc(Cc2ccc(NC(=O)NCc3ccccc3)cc2)nc(Cl)c1CC(=O)O [Example 4-2],10 to 100 nM
12,CCCCCCCNc1ccc(Cc2nc(Cl)c(CC(=O)O)c(N(C)CC(=O)NC3CCCC3)n2)cc1 [Example 5-5],> 500 nM
13,CN(CC(=O)NC1CCCC1)c1nc(Cc2ccc(NC(=O)c3ccccc3)cc2)ncc1CC(=O)O [Example 2-4],10 to 100 nM
14,O=C(O)Cc1c(Cl)nc(Cc2ccc(NC(=O)c3ccc4ccccc4c3)cc2)nc1N1CCOCC1 [Example 3-6],< 10 nM
15,"O=C(O)Cc1c(Cl)nc(Cc2ccc(NC(=O)c3ccc4ccccc4c3)cc2)nc1N1CCCC1 [Example 3-1, {4-Chloro-2-[4-(2-naphthoylamino)benzyl]-6-pyrrolidin-1-ylpyrimidin-5-yl}acetic acid]",< 10 nM
16,CN(CC(=O)NC1CCCC1)c1nc(Cc2ccc(NC/C=C/c3ccccc3)cc2)nc(Cl)c1CC(=O)O [Example 5-4],100 to 500 nM
17,CN(C)c1nc(Cc2ccc(NC(=O)c3ccc4cc[nH]c4c3)cc2)nc(Cl)c1CC(=O)O [Example 3-8],< 10 nM
18,O=C(O)Cc1c(Cl)nc(Cc2ccc(NC(=O)c3ccc4ccccc4c3)cc2)nc1N1CCCCC1 [Example 3-7],< 10 nM
19,CN(C)c1nc(Cc2ccc(NC(=O)c3ccc(S(N)(=O)=O)cc3)cc2)nc(Cl)c1CC(=O)O [Example 1-40],100 to 500 nM

row,SMILES,IC50
1,CN(CC(=O)NC1CCCC1)c1nc(Cc2ccc(NC(=O)NCCc3ccccc3)cc2)nc(Cl)c1CC(=O)O [Example 4-3],10 to 100 nM
2,CN(CC(=O)NC1CCCC1)c1nc(Cc2ccc(NC(=O)c3ccc4ccccc4c3)cc2)ncc1CC(=O)O [Example 2-2],< 10 nM
3,O=C(O)Cc1c(Cl)nc(Cc2ccc(NC(=O)c3ccc4ccccc4c3)cc2)nc1N1CCC(O)C1 (stereo not shown) [Example 3-13],< 10 nM
4,CCN(C)c1nc(Cc2ccc(NC(=O)c3ccc4ccccc4c3)cc2)nc(Cl)c1CC(=O)O [Example 3-12],< 10 nM
5,CN(CC(=O)O)c1nc(Cc2ccc(NC(=O)c3ccc4ccccc4c3)cc2)nc(Cl)c1CC(=O)O [Example 3-2],10 to 100 nM
6,CC(c1ccc(NC(=O)c2ccc3ccccc3c2)cc1)c1ncc(CC(=O)O)c(N(C)C)n1 (stereo not shown) [Example 2-18],< 10 nM
7,CN(C)c1nc(Cc2ccc(NC(=O)c3ccc(Br)cc3)cc2)ncc1CC(=O)O [Example 2-16],< 10 nM
8,CN(CC(=O)N1CCCC1)c1nc(Cc2ccc(NC(=O)c3ccc4ccccc4c3)cc2)ncc1CC(=O)O [Example 2-3],< 10 nM
9,COc1ccc(C(=O)Nc2ccc(Cc3nc(Cl)c(CC(=O)O)c(N4CCCC4)n3)cc2)cc1Cl [Example 3-16],< 10 nM
10,CN(C)c1nc(Cc2ccc(NC(=O)c3ccc(Cl)cc3)cc2)ncc1CC(=O)O [Example 2-6],< 10 nM
11,COc1nc(Cc2ccc(NC(=O)c3ccc4ccccc4c3)cc2)nc(Cl)c1CC(=O)O [Example 3-9],< 10 nM
12,O=C(O)Cc1c(Cl)nc(Cc2ccc(NC(=O)c3ccc4ccccc4c3)cc2)nc1N1CC=CC1 [Example 3-10],< 10 nM
13,CN(c1nc(Cc2ccc(NC(=O)c3ccc4ccccc4c3)cc2)nc(Cl)c1CC(=O)O)C1CCCCC1 [Example 3-3],< 10 nM
14,CN(Cc1ccccc1)C(=O)Nc1ccc(Cc2ncc(CC(=O)O)c(N(C)C)n2)cc1 [Example 4-6],100 to 500 nM
15,CN(CC(=O)NC1CCCC1)c1nc(Cc2ccc(NC(=O)/C=C/c3ccccc3)cc2)ncc1CC(=O)O [Example 2-5],< 10 nM
16,CN(C)c1nc(Cc2ccc(NC(=O)/C=C/c3ccc(C(F)(F)F)cc3)cc2)ncc1CC(=O)O [Example 2-17],< 10 nM
17,"CN(CC(=O)NC1CCCC1)c1nc(Cc2ccc(NCC3CCCCC3)cc2)nc(Cl)c1CC(=O)O [Example 5-1, {4-Chloro-2-{4-[(cyclohexylmethyl)amino]benzyl}-6-[[2-(cyclopentylamino)-2-oxoethyl](methyl)amino]pyrimidin-5-yl}acetic add]",> 500 nM
18,CN(C)c1nc(Cc2ccc(NC(=O)NCc3ccccc3)cc2)ncc1CC(=O)O [Example 4-5],10 to 100 nM

# The next lines start with the values.
row,IC50,SMILES
1,10 to 100 nM,CN(C)c1nc(Cc2ccc(NC(=O)c3ccc4ccccc4c3)cc2)nc(N2CCCCC2)c1CC(=O)O [Example 7-5]
2,< 10 nM,"Cc1nc(Cc2ccc(NC(=O)c3ccc4ccccc4c3)cc2)nc(N2CCCC2)c1CC(=O)O [Example 8-1, {4-Methyl-2-[4-(2-naphthoylamino)benzyl]-6-pyrrolidin-1-ylpyrimidin-5-yl}acetic acid]"
3,< 10 nM,CN(C)c1nc(Cc2ccc(NC(=O)/C=C/c3ccccc3)cc2)nc(N(C)C)c1CC(=O)O [Example 7-7]
4,10 to 100 nM,CN(C)c1nc(Cc2ccc(NC(=O)c3ccc4ccccc4c3)cc2)nc(N2CCCC2)c1CC(=O)O [Example 7-4]
5,< 10 nM,Cc1nc(Cc2ccc(NC(=O)/C=C/c3ccccc3)cc2)nc(N(C)C)c1CC(=O)O [Example 8-5]
6,< 10 nM,CN(C)c1nc(Cc2ccc(NC(=O)c3ccc(Cl)c(Cl)c3)cc2)nc(N(C)C)c1CC(=O)O [Example 7-6]
7,> 500 nM,CN(C)c1nc(Cc2ccc(N(C)C(=O)/C=C/c3ccccc3)cc2)nc(Cl)c1CC(=O)O [Example 6-2]
8,10 to 100 nM,"CN(C)c1nc(Cc2ccc(NC(=O)c3ccc4ccccc4c3)cc2)nc(N2CCOCC2)c1CC(=O)O [Example 7-1, {4-(Dimethylamino)-6-morpholin-4-yl-2-[4-(2-naphthoylamino)benzyl]pyrimidin-5-yl}acetic acid]"
9,100 to 500 nM,"CN(C)c1nc(Cc2ccc(N(C)C(=O)c3ccc(Cl)cc3)cc2)nc(Cl)c1CC(=O)O [Example 6-1, [4-Chloro-2-{4-[(4-chlorobenzoyl)(methyl)amino]benzyl}-6-(dimethylamino)pyrimidin-5-yl]acetic acid]"
10,< 10 nM,Cc1nc(Cc2ccc(NC(=O)c3ccc(Cl)c(Cl)c3)cc2)nc(N2CCCC2)c1CC(=O)O [Example 8-2]
11,< 10 nM,Cc1nc(Cc2ccc(NC(=O)c3ccc(Cl)c(Cl)c3)cc2)nc(N(C)C)c1CC(=O)O [Example 8-4]
12,< 10 nM,Cc1nc(Cc2ccc(NC(=O)c3ccc4ccccc4c3)cc2)nc(N(C)C)c1CC(=O)O [Example 8-3]
13,> 500 nM,CN(C)c1nc(Cc2ccc(N(C)C(=O)c3ccc4ccccc4n3)cc2)nc(Cl)c1CC(=O)O [Example 6-3]
14,10 to 100 nM,CN(C)c1nc(Cc2ccc(NC(=O)c3ccc4ccccc4c3)cc2)nc(N(C)C)c1CC(=O)O [Example 7-3]
15,10 to 100 nM,CN(C)c1nc(Cc2ccc(NC(=O)OCc3ccc([N+](=O)[O-])cc3)cc2)ncc1CC(=O)O [Example 9-4]
